Data published in US10730923B2 (Indiana University Research and Technology Corporation, priority 2011, dated 2020).
*1 amine or outer side, *2 acyl side, *3 side chain or, on linkers, in order; H or OH if unused. Where a SMILES comes first, the peptide text is derived from it. Where no end group is shown, it is not given here. Side-chain parts run from the residue outwards. [ ]: non-standard residue; d: D form. The star is where a group is joined. γGlu = O=C(O)[C@H](CCC(=O)[*:2])N[*:1]; Palmitoyl = CCCCCCCCCCCCCCCC(=O)*; Aib = CC(C)(N)C(=O)O

Columns and labels:
Assay type in all cases: in vivo
[1] = diet-induced obese (DIO) mice, daily dosing for nine days: body weight and ambient glucose
Description: Mice were administered a vehicle control or a dose of a peptide daily for nine days. The peptides tested in this study included a peptide of SEQ ID NO: 12, a peptide of SEQ ID NO: 17, a peptide of SEQ ID NO: 18, and a peptide of SEQ ID NO: 19. Doses of each peptide were varied—each of the peptides of SEQ ID NO: 12, 17, and 19 was administered at a dose of either 3 nmol/kg or 9 nmol/kg, while the peptide of SEQ ID NO: 18 was administered at a dose of 1 nmol/kg, 3 nmol/kg, or 9 nmol/kg. Data are expressed as mean±SEM.
In addition to cumulative body weight change, ambient glucose levels of the DIO mice were measured.

[2] = obese rhesus monkeys, daily dosing for 21 days: body weight and food intake
Description: The in vivo effects of a peptide of the invention were confirmed in obese rhesus monkeys by administering daily for 21 days a vehicle control, a commercially available product (Liraglutide), a peptide of SEQ ID NO: 20, or a peptide of SEQ ID NO: 17. […] Body weight and food intake were measured.

[3] = diabetic rhesus monkeys, 10 days treatment: body weight, fasting blood glucose, Meal Tolerance Test; conditions: 1 μg/kg s.c. for 10 days
Description: The in vivo effects of a peptide of the invention were tested in diabetic rhesus monkeys (n=7) that were aged 16-26 years and having an average body weight of […]. Diabetic rhesus monkeys (n=7) that were aged 16-26 years with an average body weight of […] were administered a vehicle control, Liraglutide at a dose of 10 μg/kg s.c. or a peptide of SEQ ID NO: 17 at a dose of 1 μg/kg s.c. for 10 days. At the end of each treatment, fasting blood glucose (FBG) was measured first followed by a Meal Tolerance Test (MTT) to assess glucose tolerance. […] Data are expressed in FIG. 4 as mean±SEM. *P<0.05 versus vehicle.

Compound: SEQ ID NO: 19: peptide of SEQ ID NO: 19 of the sequence listing, tested in DIO mice; sequence not printed in the text (H[dS]QGTFTSDK([γGlu-Palmitoyl])SKYLDERAAQDFVQWLLDT-NH2; N-terminus assumed; SMILES CCCCCCCCCCCCCCCC(=O)N[C@@H](CCC(=O)NCCCC[C@H](NC(=O)[C@H](CC(=O)O)NC(=O)[C@H](CO)NC(=O)[C@@H](NC(=O)[C@H](Cc1ccccc1)NC(=O)[C@@H](NC(=O)CNC(=O)[C@H](CCC(N)=O)NC(=O)[C@@H](CO)NC(=O)[C@@H](N)Cc1c[nH]cn1)[C@@H](C)O)[C@@H](C)O)C(=O)N[C@@H](CO)C(=O)N[C@@H](CCCCN)C(=O)N[C@@H](Cc1ccc(O)cc1)C(=O)N[C@@H](CC(C)C)C(=O)N[C@@H](CC(=O)O)C(=O)N[C@@H](CCC(=O)O)C(=O)N[C@@H](CCCNC(=N)N)C(=O)N[C@@H](C)C(=O)N[C@@H](C)C(=O)N[C@@H](CCC(N)=O)C(=O)N[C@@H](CC(=O)O)C(=O)N[C@@H](Cc1ccccc1)C(=O)N[C@H](C(=O)N[C@@H](CCC(N)=O)C(=O)N[C@@H](Cc1c[nH]c2ccccc12)C(=O)N[C@@H](CC(C)C)C(=O)N[C@@H](CC(C)C)C(=O)N[C@@H](CC(=O)O)C(=O)N[C@H](C(N)=O)[C@@H](C)O)C(C)C)C(=O)O)
- decrease in glucose levels compared to vehicle control mice ([1]; 9 nmol/kg, Day 4): ~40%
- decrease in glucose levels compared to vehicle control mice ([1]; 9 nmol/kg, Day 7): ~39%
- decrease in glucose levels compared to vehicle control mice ([1]; 9 nmol/kg, Day 9): ~26%

Compound: SEQ ID NO: 18: peptide of SEQ ID NO: 18 of the sequence listing, tested in DIO mice; sequence not printed in the text (HXQGTFTSDKSKYLDERAAQDFVQWLMDT; (2)..(2) Xaa is AIB; (10)..(10) Acylated with a C16 fatty acyl group via gamma-Glu-gamma-Glu spacer; (29)..(29) C-terminal amidation)
- decrease in ambient glucose vs. vehicle ([1]; 3 nmol/kg or 9 nmol/kg dose, by Day 4): −29%

Compound: CCCCCCCCCCCCCCCC(=O)N[C@@H](CCC(=O)N[C@@H](CCC(=O)NCCCC[C@H](NC(=O)[C@H](CC(=O)O)NC(=O)[C@H](CO)NC(=O)[C@@H](NC(=O)[C@H](Cc1ccccc1)NC(=O)[C@@H](NC(=O)CNC(=O)[C@H](CCC(N)=O)NC(=O)C(C)(C)NC(=O)[C@@H](N)Cc1c[nH]cn1)[C@@H](C)O)[C@@H](C)O)C(=O)N[C@@H](CO)C(=O)N[C@@H](CCCCN)C(=O)N[C@@H](Cc1ccc(O)cc1)C(=O)N[C@@H](CC(C)C)C(=O)N[C@@H](CC(=O)O)C(=O)NC(C)(C)C(=O)N[C@@H](CCCNC(=N)N)C(=O)N[C@@H](C)C(=O)N[C@@H](C)C(=O)N[C@@H](CCC(N)=O)C(=O)N[C@@H](CC(=O)O)C(=O)N[C@@H](Cc1ccccc1)C(=O)N[C@H](C(=O)N[C@@H](CCC(N)=O)C(=O)N[C@@H](Cc1c[nH]c2ccccc12)C(=O)N[C@@H](CC(C)C)C(=O)N[C@@H](CCSC)C(=O)N[C@@H](CC(N)=O)C(=O)N[C@H](C(=O)N[C@@H](CCCCN)C(=O)N[C@@H](CCC(N)=O)C(=O)O)[C@@H](C)O)C(C)C)C(=O)O)C(=O)O [SEQ ID NO: 17] (H-H[Aib]QGTFTSDK([γGlu-γGlu-Palmitoyl])SKYLD[Aib]RAAQDFVQWLMNTKQ-OH; N-terminus assumed)
- reduction in glucose levels compared to vehicle control mice ([1]; 3 nmol/kg, Day 7): ~28%
- decrease in glucose levels compared to vehicle control mice ([1]; 3 nmol/kg, Day 9): ~19%
- decrease in glucose levels compared to vehicle control mice ([1]; 9 nmol/kg, Day 4): ~48%
- decrease in glucose levels compared to vehicle control mice ([1]; 9 nmol/kg, Day 7): ~48%
- decrease in glucose levels compared to vehicle control mice ([1]; 9 nmol/kg, Day 9): ~45%
- body weight following a one week wash-out ([2]; Day 28): regained much of the weight that was lost
- food intake, % change vs. baseline ([2]; daily s.c. for 21 days, Liraglutide 20 μg/kg, SEQ ID NO: 17 3 μg/kg): −25.7%±3.2
- glucose tolerance during Meal Tolerance Test (MTT) compared to vehicle [3]: improved glucose tolerance
